Measurements: patent publication US9212396B2, “Materials and methods useful for affecting tumor cell growth, migration and invasion” (The Ohio State University, priority 2009, dated 2015)

Legend:
Assay type in all cases: cell-based, human
Calu-1 cells [1] = experiment: Caspase 3/7 assay of TRAIL-induced apoptosis in Calu-1 cells; conditions: Calu-1 cells transfected 72 h, control 2′-O-me-scrambled miR
Description: (§1) Cells were grown in six well plate (1.7×10^6 per well) for 24 h and transfected 100 nmoli/L/well of 2′-O-me-oligoribonucleotides using lipofectamine 2000. RNA and proteins were extracted after 72 h from the transfection.
(§2) Cells were plated in 96-well plates in triplicate and incubated at 37° C. in a 5% CO2 incubator. Super-Killer TRAIL (Alexis Biochemicals) was used for 24-48 h at 400 ng ml-1. Cell viability was examined with 3-(4,5-dimethylthiazol-2-yl)-2,5-dipheniltetrazolium bromide (MTT)-Cell Titer 96 AQueous One Solution Cell Proliferation Assay (Promega), according to the manufacturer's protocol. Metabolically active cells were detected by adding 20 μl of MTT to each well. After 1 h of incubation, the plates were analyzed in a Multilabel Counter (Bio-Rad Laboratories). Apoptosis was assessed using Annexin V-FITC apoptosis detection kits followed by flowcytometric analysis and caspase 3/7 activity. […] Statistical analysis was done using two sample t test, assuming equal variance, and P value was calculated based on two-tailed test. For detection of caspase 3/7 activity, cells were cultured in 96-well plates and treated with TRAIL 400 ng/ml and analyzed using Caspase-Glo 3/7 Assay kit (Promega) according to the manufacturer's instructions. Continuous variables are expressed as mean values±standard deviation (s.d.).

Snu-387 cells [2] = experiment: Caspase 3/7 assay of TRAIL-induced apoptosis in Snu-387 cells; conditions: Snu-387 cells transfected 72 h, control 2′-O-me-scrambled miR
Description: as §1, §2

PTEN and TIMP3 [3] = experiment: Western blot of PTEN and TIMP3 in Calu-1 cells; conditions: Calu-1 cells after transfection
Description: (§3) Total proteins from NSCLC and HCC cells were extracted with radioimmuno-precipitation assay (RIPA) buffer ([…] NaCl, […] Tris-HCl, pH 7.5, 1% Triton, 0.1% SDS, 0.1% sodium deoxycholate and 1% Nonidet P40). Sample extract (50 μg) was resolved on 7.5-12% SDS-polyacrylamide gels (PAGE) using a mini-gel apparatus (Bio-Rad Laboratories) and transferred to Hybond-C extra nitrocellulose. Membranes were blocked for 1 h with 5% nonfat dry milk in Tris-buffered saline containing 0.05% Tween 20, incubated overnight with primary antibody, washed and incubated with secondary antibody, and visualized by chemiluminescence.
(§4) The following primary antibodies were used: anti-PTEN, anti-c-Jun, anti-p-c-Jun, anti-Fos, anti-p-JNK, anti-MMP3, anti-Mc1-1 (Santa Cruz), anti-TIMP3 (Millipore) anti-PI3K (BD Biosciences), anti-ERKs, anti-phospho ERKs, anti-AKT, anti-p-AKT, anti-GSK3b, anti-p-GSK3b (Ser9), anti-PAK1 anti-caspase-8,-3 and -9, anti-PARP, anti-cytochrome c (Cell signaling) and anti-MMP9, anti-FADD (Abcam), anti-1-actin antibody (Sigma). A secondary anti-rabbit or anti-mouse immunoglobulin G (IgG) antibody peroxidase conjugate (Chemicon) was used.
(§5) 2′-O-me-GFP miR (5′-[…] [SEQ ID No:17]) was used as control. Cells were grown in six well plate (1.7×10^6 per well) for 24 h and transfected 100 nmoli/L/well of 2′-O-me-oligoribonucleotides using lipofectamine 2000. […]

PTEN and TIMP3 [4] = experiment: Western blot of PTEN and TIMP3 in Snu-387 cells; conditions: Snu-387 cells after transfection
Description: as §3, §4, §5

Calu-1 cells [5] = experiment: Migration and invasion assay in Calu-1 cells; conditions: Calu-1 cells after transfection
Description: (§6) Transwell insert chambers with […] porous membrane (Greiner bio-one) were used for the assay. Cells were washed three times with PBS and added to the top chamber in serum-free media. The bottom chamber was filled with media containing 10% FBS. Cells were incubated for 24 h at 37° C. in a 5% CO2 humidified incubator. To quantify migrating cells, cells on the top chamber were removed by using a cotton-tipped swab, and the migrated cells were fixed in PBS, 25% glutaraldehyde and stained with Crystal Violet stain, visualized under a phase-contrast microscope, and photographed. Cristal violet-stained cells were moreover solubilized in acetic acid and methanol (1:1) and absorbance was measured at 595 nm. The results are means of three independent experiments±S.D.
(§7) H460 and SK-Hep-1 cells were placed into the top chamber of a BD Falcon HTS FluoroBlok insert with a membrane containing […] pores (BD Biosciences) in […] of serum-free Dulbecco's modified Eagle medium in triplicate. […] The fluorescence of migrated cells was quantified using a fluorometer at excitation wavelengths of 485 nm and emission wavelengths of 530 nm and expressed as arbitrary fluorescence units. Data are expressed as mean±standard error of 4 separate determinations.

Snu-387 cells [6] = experiment: Migration and invasion assay in Snu-387 cells; conditions: Snu-387 cells after transfection
Description: as §6, §7

AKT pathway = experiment: Western blots of AKT pathway in Snu-387 cells; conditions: Snu-387 cells after knockdown
Description: as §3, §4, §5

miR-221 and miR-222 = experiment: qRT-PCR of miR-221 and miR-222 in Huh7 cells after anisomycin; design: dose or concentration left out as unconfirmed
Description: Real-time PCR was performed using a standard TaqMan PCR Kit protocol on an Applied Biosystems 7900HT Sequence Detection System (Applied Biosystems). The 10 μl PCR reaction included 0.67 μl RT product, 1 μl TaqMan Universal PCR Master Mix (Applied Biosystems), […]. The reactions were incubated in a 96-well plate at 95° C. for […], followed by 40 cycles of 95° C. for 15 s and 60° C. for 1 min. All reactions were run in triplicate. The threshold cycle (CT) is defined as the fractional cycle number at which the fluorescence passes the fixed threshold. The comparative CT method for relative quantization of gene expression (Applied Biosystems) was used to determine miRNA expression levels. The y axis represents the 2(-CT), or the relative expression of the different miRs. miRs expression was calculated relative to U44 and U48 rRNA and multiplied by 104. Experiments were carried out in triplicate for each data point, and data analysis was performed by using software (Bio-Rad).

c-Jun, PTEN and TIMP3 = experiment: Western blot in Huh7 cells after anisomycin
Description: as §3, §4

PTEN and TIMP3 3′ UTRs = experiment: 3′UTR luciferase reporter assay in MEG01 cells; conditions: wild type 3′ UTRs
Source text: The 3′ UTR of the human PTEN and TIMP3 genes were PCR amplified using the following primers: PTEN Fw 5′-TCTAGAGACTCTGATCCAGAGAATGAACC-3′ [SEQ ID No:1] and PTEN Rw 5′-TCTAGAGTTGCCACAAGTGCAAAGGGGTAGGATGTG-3′ [SEQ ID No:2]; TIMP3 Fw 5′-TCTAGACTGGGCAAAGAAGGGTCTTTCGCAAAGC-3′ [SEQ ID No:3] and TIMP3 Rw 5′ TCTAGATTCCAATAGGGAGGAGGCTGGAGGAGTCTC-3′ [SEQ ID No:4] and cloned downstream of the […] luciferase stop codon in pGL3 control vector (Promega), giving rise to the p3′UTR-PTEN and p3′UTR-TIMP3 plasmids.
These constructs were used to generate, by inverse PCR, the p3′-UTRmut-PTEN plasmid-primers: Fw: 5′-GTTGAAAAAAGGTTGGGGGCGGGTGTCATGTATATAC-3 [SEQ ID No:5]; Rw: 5′-GTATATACATGACACCCGCCCCCAACCTTTTTTCAAC-3′[SEQ ID No:6]; p3′-UTRmut-TIMP3 plasmid-primers: Fw: 5′-GTATAATTTAAAATCATTGGGCGGCGGGAGACACTTCTGTATTTC-3′ [SEQ ID No:7]; Rw: 5′-GAAATACAGAAGTGTCTCCCGCCGCCCAATGATTTTAAATTATAC-3′ [SEQ ID No:8].
MeG01 cells were cotransfected with 1 μg of p3′UTR-PTEN or p3′UTR-TIMP3 and with p3′UTRmut-PTEN or p3′ UTR TIMP3 plasmids and 1 μg of a Renilla luciferase expression construct pRL-TK (Promega) by using Lipofectamine 2000 (Invitrogen). Cells were harvested 24 h post-transfection and assayed with Dual Luciferase Assay (Promega) according to the manufacturer's instructions. […]

PTEN and TIMP3 [7] = experiment: Western blot of PTEN and TIMP3 in H460 cells; conditions: 72 h, compared to scrambled pre-miR
Description: as §3, §4

PTEN and TIMP3 mRNA = experiment: qRT-PCR of PTEN and TIMP3 mRNA in H460 cells
PTEN and TIMP3 [8] = experiment: Western blot of PTEN and TIMP3 in Sk-Hep1 cells; conditions: Sk-Hep1 cells upon over-expression
Description: as §3, §4

[9] = test system: AKT/ERKs pathways and Metallopeptidases; experiment: Western blots of AKT/ERKs pathways and metallopeptidases in H460 cells; conditions: H460 cells after forced expression
Description: as §3, §4

H460 cells [10] = experiment: Flow cytometric cell cycle analysis of H460 cells; conditions: H460 transfected cells, 72 h
H460 cells [11] = experiment: Migration and invasion assay in H460 cells; conditions: H460 cells after transfection
Description: as §6, §7

Sk-Hep1 cells = experiment: Migration and invasion assay in Sk-Hep1 cells; conditions: Sk-Hep1 cells after transfection
Description: as §6, §7

| Compound | sensitivity to TRAIL-induced apoptosis (caspase 3/7 assay) (Calu-1 cells [1]) | sensitivity to TRAIL-induced apoptosis (caspase 3/7 assay) (Snu-387 cells [2]) | PTEN and TIMP3 protein levels (western blot) (PTEN and TIMP3 [3]) | PTEN and TIMP3 protein level (western blot) (PTEN and TIMP3 [4]) | cell migration and invasion (Calu-1 cells [5]) | cell migration and invasion (Snu-387 cells [6]) | AKT pathway (western blots) (AKT pathway) | further results |
| --- | --- | --- | --- | --- | --- | --- | --- | --- |
| 5′-gaaacccagcagacaauguagcu (antisense GAAACCCAGCAGACAAUGUAGCU; all 2'-O-methyl, backbone not given here) [2′-O-me-anti-miR-221] | considerably sensitized these cells to TRAIL-induced apoptosis | considerably sensitized these cells to TRAIL-induced apoptosis | increased the protein levels of PTEN and TIMP3 | increased the protein level of PTEN and TIMP3 | a decrease in cell migration and invasion | a decrease in cell migration and invasion | inhibition of the AKT pathway | – |
| 5′-gagacccagtagccagatgtagct (antisense GAGACCCAGTAGCCAGATGTAGCT; all 2'-O-methyl, backbone and T or U not given here) [2′-O-me-anti-miR-222] | considerably sensitized these cells to TRAIL-induced apoptosis | considerably sensitized these cells to TRAIL-induced apoptosis | increased the protein levels of PTEN and TIMP3 | increased the protein level of PTEN and TIMP3 | a decrease in cell migration and invasion | a decrease in cell migration and invasion | inhibition of the AKT pathway | – |
| COc1ccc(C[C@H]2NC[C@H](O)[C@H]2OC(C)=O)cc1 [anisomycin] | – | – | – | – | – | – | – | miR-221 expression increase (qRT-PCR) (miR-221 and miR-222): 80%; miR-222 expression increase (qRT-PCR) (miR-221 and miR-222): 40%; PTEN and TIMP3 expression levels (c-Jun, PTEN and TIMP3; Huh7 cells after anisomycin): decreased drastically; c-Jun activation (c-Jun, PTEN and TIMP3; Huh7 cells, total lysate, western blot): induced c-Jun activation |
| miR-222: microRNA transfected (100 nM) for enforced expression (GAGACCCAGTAGCCAGATGTAGCT; listed as DNA, chemistry not given here) | – | – | – | – | – | – | – | relative luciferase activity of PTEN and TIMP3 3′ UTR reporter constructs (PTEN and TIMP3 3′ UTRs): significantly affected luciferase expression; endogenous levels of PTEN and TIMP3 (western blot) (PTEN and TIMP3 [7]): significantly reduced the endogenous levels of PTEN and TIMP3; down-regulation of TIMP3 mRNA (qRT-PCR) (PTEN and TIMP3 mRNA; H460 cells after enforced expression): not observed; PTEN mRNA levels (qRT-PCR) (PTEN and TIMP3 mRNA; H460 cells after forced expression): strongly reduced; PTEN and TIMP3 proteins (western blot) (PTEN and TIMP3 [8]): reduced; activation of AKT/ERKs pathways and metallopeptidases (western blots) [9]: induces the activation of the AKT/ERKs pathways and Metallopeptidases; cell cycle distribution (H460 cells [10]): a decrease of G1 and a corresponding increase of the S and G2-M phases; migratory and invasive capabilities (H460 cells [11]): significant increase; migratory and invasive capabilities (Sk-Hep1 cells): significant increase |
